The values that follow come from patent US10174015B2, “Substituted heterocyclic derivative, preparation method and use thereof” (Xiamen University, priority 2014, dated 2019).

Series [1] is described as follows: Assay on drug metabolism in rat. It is filed as in vivo, SD rats. The note with it: SD, plasma, iv, 30 mg/Kg via jugular vein. An excerpt: 50 SD rats (purchased from Shanghai SLAC Laboratory Animal Co., Ltd) were divided into 5 groups randomly, 10 rats per group. After anesthesia with ether, rat was fixed on the operating table on its back, and was shaved at the operative site of neck. After disinfection with 75% alcohol, the neck was cut about 1.5 cm longitudinally, muscle tissues and nervi vascularis surrounding trachea were separated by blunt dissection, and carotid artery was separated by blunt dissection. Ligation was performed at distal end, an artery clamp was used at proximal part, and the distance between them was about 1 cm. A small cut was made with a pair of ophthalmic scissors at proximal part close to the ligated site, and arterial duct was introduced from the small cut to the proximal part, the artery clamp was loosened, the arterial ostium was clamped with smooth forceps, whilst the arterial duct was delivered to heart ventricle. Upon the introduction of the arterial duct into heart ventricle, the blood vessel was ligated. By using the same intubation method for artery, intubation was applied to jugular veins. After intubation, a tubule filled with heparin sodium was drawn out from artery and vein, which passed through the skin under the ear of the rat and drawn out from the dorsal part skin of the neck of the rat, and the tubule was fixed well. The muscles and skin were sutured at the surgical site of the rat, and normal saline containing heparin sodium was injected from time to time via the tubule connecting the artery and the vein to prevent tubule obstruction due to blood coagulation. The rat was placed in a warm and clean cage provided with water and food, waiting for the rat to wake up naturally.
After the rat regained consciousness and acted normally, assay on metabolic stability of compounds was performed in the rat. All the agents to be injected (including compounds to be tested and control drug) were dissolved in a mixed solvent of PEG400:Tween 80:normal saline (at a volume ratio of 5:5:90), at a concentration of 5 mg/mL. The agent was injected slowly at a dose of 30 mg/Kg via the tubule drawn out from the jugular vein. After administration, the time was recorded, and blood was collected from the tubule drawn out from carotid artery at 2, 5, 10, 20, 30, 60, 240, 360, and 720 min, in an amount of 200 μL for each time. The whole blood was placed in commercially available heparin sodium blood-collecting tube (Jiangxi Jingzhi Medical Equipment Co., Ltd.), centrifuged at 1800 g for 15 min. To the supernatant plasma, 150 μL pre-cooled methanol stopping buffer (containing internal standard E8, 1 nmol/sample) was added, vertically mixed well, and then centrifuged at 4° C., 12000 g for 10 min. The supernatant was transferred to a sample vial, the target compound was detected by LC-MS/MS, and the content of the compound was calculated by virtue of standard curve.

Series [2] has as its target hERG potassium channel (Homo sapiens (Human), UniProt Q12809). The series can be described thus: hERG potassium channel automated patch clamp in CHO-hERG cells. As for the experimental part:
CHO-hERG cells (purchased from ATCC) were incubated in a culture flask. When the cell density reached 60˜80%, the culture medium (Glutamax DMEM/F12 medium (Gibco, Shanghai) containing 10% fetal bovine serum) was removed. The cells were washed with 7 mL PBS once, and then digested by adding 3 mL Detachin cell dissociation buffer. After complete digestion, the resultant mixture was neutralized by adding 7 mL culture medium, and centrifuged. The supernatant was removed with a pipette, 5 mL culture medium was added to re-suspend the cells to ensure a cell density of 2˜5×10^6/mL.
Intracellular fluid and extracellular fluid were prepared as described in the following table.
A certain amount of compound was dissolved in […] at the following concentrations, to prepare the stock solution of compound. 2 μL stock solution of compound was added to 998 μL extracellular fluid, and was subjected to 5-fold serial dilution in extracellular fluid containing 0.2% DMSO to get the final concentrates to be tested.
Single cell giga-seal and formation of whole-cell mode were automatically performed by Sophion Qpatch HT fully automated cell patch clamp systems. After obtaining the whole-cell recording mode, the cell was clamped at −80 mV. The cell first underwent pre-voltage of −50 mV for 50 msec, then underwent depolarization stimulation at 20 mV for 5 sec, and then underwent repolarization at −50 mV for 5 sec, and then the voltage return to −80 mv. The cell underwent the stimulation at the voltage every 15 sec, and the data were recorded for 2 min, then extracellular fluid was administered, and then the data were recorded for 2 min. Then, the administration process begun. The concentration of a test compound started from the lowest concentration, each test concentration was administered for 2 min. […] At least three cells were tested for each concentration (n≥3). The experimental data was analyzed by XLFit software.

A short description of series [3]: Stability assay in rat plasma. In kind it is in vitro ADME. Particulars: 37° C. As for the experimental part: To each of several tubes sub-packaged with rat plasma, PBS solution was added in a volume equal to a quarter of plasma volume, and the resultant mixture was mixed well. […] At different time points (0, 10, 30, 60, 120, 240, 360, 720, 1440 min), 50 μL plasma sample was taken and added to 150 μL precooled methanol (containing the internal standard compound E8, with a structure of
[drawing 117] and a name of 1-(2-Biphenyl-4-yl)ethyl-carbonyl pyrrolidine, 1 nmol/sample), wherein three parallel samples were prepared for each time point. The samples were then vertically mixed well, and centrifuged at 4° C., 12000 g for 10 min. The supernatant was transferred to a sample vial. LC-MS/MS was used to measure the peak area at different time points, Analyst® version 1.4.1. software was used to analyze chromatographic peak, and the content of the target compound was calculated by virtue of the standard curve.

Series [4] concerns inflammatory abdominal pain caused by acetic acid. Briefly: Abdominal inflammatory pain caused by acetic acid. In kind it is in vivo, Kunming mice. Particulars: mice, 10 mg/kg i.p. 1 h before acetic acid; indometacin 20 mg/kg (FIG. 4). Here is the method: In the Experimental example, compounds to be evaluated or compounds to be tested or test compounds used are the Compounds 1-46 prepared in the Examples according to the invention. In the Experimental example, all the agents for injection, including compounds to be evaluated or compounds to be tested or test compounds, and positive control drug, were dissolved in a mixed solvent of PEG400:Tween 80:normal saline (at a volume ratio of 5:5:90), at a concentration of 5 mg/mL.
Typical model for studying inflammation-induced visceral pain medically was used to evaluate the therapeutic effects of compounds on inflammatory visceral pain. The model can represent general visceral pain including, but not only limited to appendicitis, gastritis, pancreatitis, prostatitis, myocarditis, interstitial cystitis, pain caused by hepatic, gall or kidney stone, irritable bowel syndrome, and chronic pelvic pain syndrome.
Experimental Kunming mice (purchased by Xiamen University Laboratory Animal Center from Shanghai SLAC Laboratory Animal Co., Ltd) were in an experimental environment with free access to food and water for 1 week. The mice were fasted for 24 h before administration. The compound to be evaluated (10 mg/kg) was administered to the mice by intraperitoneal injection at 1 h before administration of acetic acid, wherein the positive control drug indometacin was administered at a dose of 20 mg/kg, and the blank control was normal saline. Acetic acid (50 μL, acetic acid dissolved in normal saline, at a concentration of 5%) was administered to the mice by intraperitoneal injection, and the mice were then placed in the observation cage. A video camera was used to record the behavior of the mice in the following 20 min. Pain-related behavior was analyzed statistically based on torsion times of the mice in said period.

Molecules are shown by their SMILES. A value given as a limit tells only on which side of the number the result lay.

Sequence of hERG potassium channel (Q12809 whole entry): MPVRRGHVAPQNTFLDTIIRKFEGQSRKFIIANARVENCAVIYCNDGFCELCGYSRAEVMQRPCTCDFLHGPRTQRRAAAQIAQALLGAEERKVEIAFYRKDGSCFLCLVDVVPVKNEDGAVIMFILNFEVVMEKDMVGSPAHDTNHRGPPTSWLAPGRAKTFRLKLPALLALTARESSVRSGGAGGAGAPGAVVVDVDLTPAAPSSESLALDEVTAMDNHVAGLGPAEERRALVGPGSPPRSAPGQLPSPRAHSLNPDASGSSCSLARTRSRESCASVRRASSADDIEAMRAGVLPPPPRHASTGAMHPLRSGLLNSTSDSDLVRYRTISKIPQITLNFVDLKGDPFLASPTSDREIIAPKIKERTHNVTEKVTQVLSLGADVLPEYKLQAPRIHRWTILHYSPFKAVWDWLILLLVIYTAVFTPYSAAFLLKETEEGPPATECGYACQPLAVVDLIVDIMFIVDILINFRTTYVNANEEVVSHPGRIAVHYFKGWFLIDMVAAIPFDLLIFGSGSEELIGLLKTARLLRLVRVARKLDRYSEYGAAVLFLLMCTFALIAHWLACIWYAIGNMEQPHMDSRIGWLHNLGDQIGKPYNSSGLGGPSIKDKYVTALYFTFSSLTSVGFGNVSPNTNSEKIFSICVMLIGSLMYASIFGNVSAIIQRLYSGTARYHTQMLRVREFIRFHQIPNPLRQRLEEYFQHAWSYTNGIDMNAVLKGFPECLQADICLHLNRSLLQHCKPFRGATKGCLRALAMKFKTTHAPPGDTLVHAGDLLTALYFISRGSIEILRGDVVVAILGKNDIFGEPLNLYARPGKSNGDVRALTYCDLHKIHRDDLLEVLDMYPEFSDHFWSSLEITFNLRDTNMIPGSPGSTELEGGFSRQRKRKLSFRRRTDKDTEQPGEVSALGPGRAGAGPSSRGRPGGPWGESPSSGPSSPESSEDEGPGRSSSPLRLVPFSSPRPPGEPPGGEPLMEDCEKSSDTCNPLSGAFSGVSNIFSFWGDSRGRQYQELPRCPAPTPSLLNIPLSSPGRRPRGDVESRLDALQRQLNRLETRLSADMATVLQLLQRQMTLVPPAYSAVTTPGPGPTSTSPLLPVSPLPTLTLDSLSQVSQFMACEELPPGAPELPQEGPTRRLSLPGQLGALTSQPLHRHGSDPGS

The compound `O=C(CCCCCc1cccc(Cl)c1)N1CCOC1=O` [Compound 9, 3-Chlorophenylhexanoyl Oxazolidinone] showed a half-life in series [1] of 1.95 h. The compound also yielded an IC50 in series [2] greater than 40 µM. In series [3], the half-life at 2 μM came to 2.72 h. The “effect of inhibiting abdominal inflammatory pain” value in series [4] is reported as “significant effects of inhibiting abdominal inflammatory pain”.
With `O=C(CCCCCc1ccccc1)N1CCOC1=O` [Compound 2, Phenylhexanoyl Oxazolidinone], the half-life in series [1] was 2.4 h. Also, in series [2], the IC50 is greater than 40 µM. Also, the half-life at 2 μM in series [3] amounted to 3.13 h. Besides, the “effect of inhibiting abdominal inflammatory pain” value in series [4] is “significant effects of inhibiting abdominal inflammatory pain”.
